# Experimental data taken from patent US20090220982A1, “COMPOSITIONS AND METHODS FOR DETERMINING NEPHROTOXICITY” (Achaogen Inc.., priority 2008, published 2009).
# Like-named read-outs stand apart in the source and are kept apart here.
# What was measured:
# [1] = patients, cited from earlier work
# [2] = 14-day rat nephrotoxicity model
# Source text: The rat in vivo assays provided information in the form of acute toxicity, changes in Blood Urea Nitrogen (BUN) and serum creatinine levels over time, as well as histopathology changes in the kidneys of animals sacrificed at the end of the study. Elevation in BUN or serum creatinine is one of the markers routinely monitored in the clinic as an indication of aminoglycoside nephrotoxicity.
# LLC-PK1 cells = settings: gentamicin introduced by electroporation; cited from earlier work
# HK-2 cells = experiment: HK-2 in vitro nephrotoxicity assay (CASPASEGLO caspase luminescence); type: cell-based, human
# Method: An in vitro nephrotoxicity assay was conducted using the human kidney epithelial cell line, HK-2.
# HK-2 cells were cultured in KSFM, with 5 ng/mL epidermal growth factor (EGF) and 0.05 mg/mL bovine pituitary extract (BPE). Cells were maintained at sub-confluence and used to initiate the assay when they reached 80% confluence.
# Diluted compounds were added to plates. The plates were subsequently returned to the incubator overnight.
# Luminescence was detected using a plate reading luminometer.
# A human kidney proximal tubule cell line, HK-2 (ATCC #CRL-2190) is cultured in Keratinocyte-Serum Free Medium (K-SFM) (Invitrogen 17005-042) with 5 ng/mL of human recombinant epidermal growth factor (EGF) and 0.05 mg/mL Bovine Pituitary Extract (BPE). Culture medium containing EGF and/or BPE is not filtered subsequent to growth factor addition, and fresh growth factors are added to the culture medium after two weeks. The HK-2 cells are split so that they are 80% confluent on the day they need to be plated into 96 well plates. These cells are not allowed to become confluent.
# Remove the HK-2 cells from the plate using trypsin-EDTA. Wash the plate with D-PBS. Add 0.5 mL trypsin, and incubate for 1 minute at room temperature or until cells start to lift off plate. Inactivate trypsin and harvest cells by adding prewarmed culture medium (37° C.) to the plate. […]
# Thaw the CASPASEGLO reagents (CASPASEGLO 3/7 Assay, Promega G8093 10×10 mL or G8092 100 mL) at room temperature. For reagent addition to plates after 31 hour compound incubation: (i) remove plates from incubator (30.5 hours after adding compounds) for approximately 30 minutes to bring to room temperature; (ii) mix CASPASEGLO reagents according to manufacturer's instructions; (iii) add 50 μL of reagent/well to 96 well plates using BioMek®FX with tips 2 mm from bottom of reservoir well (Beckman Coulter); (iv) place plates on shaker platform and shake gently for 30 seconds; (v) incubate at room temperature for 30 minutes; (vi) place plates on shaker platform and shake gently for 30 seconds; and (vii) read plate 30-60 minutes after reagents are added, Analyst™ HT (LJL Biosystems™). The settings for the Analyst™ HT are: (i) default luminescence method; (ii) luminescence height, 1.5 mm; (iii) 5 readings per well; (iv) integration time of 100000 μs; and (v) attenuator out.
# The average luminescence values are calculated along with the standard deviation of the replicates. The concentration of the aminoglycoside tested is graphed versus the corresponding luminescence reading. The area under the curve (AUC) is calculated for each experimental compound and for gentamicin. The EC50 can then be calculated for each experimental compound and gentamicin, using methods well known in the art.
# [3] = rats, cited from earlier work
# [4] = tested on: renal brush border membranes; settings: in vitro; cited from earlier work
# [5] = β-thalassemia patients; cited from earlier work
# erythrocytes = settings: cited from earlier work
# [6] = cited from earlier work
# [7] = cited from earlier work; remark: listed apart in the source
# [8] = co-therapy with gentamicin, guinea pigs; cited from earlier work
compound,measurement,setting,value
CC(=O)Oc1ccccc1C(=O)O [aspirin],hearing loss versus gentamicin alone,[1]; intravenous gentamicin and oral aspirin,significantly less hearing loss
same,side effect of aspirin treatment,[1],caused gastric bleeding in some patients
[H]/N=C(/N)N[C@H]1[C@H](O)[C@@H](O)[C@H](O[C@@H]2O[C@@H](C)[C@](O)(C=O)[C@H]2O[C@@H]2O[C@@H](CO)[C@H](O)[C@@H](O)[C@@H]2NC)[C@@H](N/C(N)=N\[H])[C@@H]1O [streptomycin],rank order of relative in vivo nephrotoxicity,"[2]; rat, in vivo",least nephrotoxic aminoglycoside tested
gentamicin,apoptosis response,LLC-PK1 cells,dose-dependent apoptosis response at much lower gentamicin concentrations
same,dose response curve of luminescence signal (induction of apoptosis) / EC50,"HK-2 cells; HK-2 cells, highest concentration tested 500 μg/mL, FIG. 2",produced a full dose response curve over the concentration range tested
same,rank order of nephrotoxicity by EC50 in the in vitro HK-2 assay,"HK-2 cells; six compounds, FIG. 3A","followed by apramycin, gentamicin and neomycin, compound A, and compound B"
same,rank order of relative in vivo nephrotoxicity,"[2]; 14-day rat model, Example 3, FIG. 4","followed by amikacin, neomycin, and gentamicin"
same,rank order of nephrotoxicity by minimum concentration of compound that produced an increase in BUN,"[2]; 14-day rat model, six compounds, FIG. 3A","followed by apramycin, gentamicin and neomycin, compound A, and compound B"
polyaspartic acid,creatinine elevation or histopathological changes,[3]; 16 weeks after the two week treatment,no creatinine elevation or histopathological changes
same,gentamicin concentration in kidneys versus gentamicin alone,"[3]; end of 14 day treatment, co-dosed with polyaspartic acid",five-fold higher gentamicin concentration in their kidneys
same,aminoglycoside binding to renal brush border membranes,[4],prevent aminoglycoside binding to renal brush border membranes
NCC[C@H](O)C(=O)N[C@@H]1C[C@H](N)[C@@H](O[C@H]2O[C@H](CN)[C@@H](O)[C@H](O)[C@H]2O)[C@H](O)[C@H]1O[C@H]1O[C@H](CO)[C@@H](O)[C@H](N)[C@H]1O [amikacin],dose response curve of luminescence signal (induction of apoptosis) / EC50,HK-2 cells,did not produce a maximal response at the highest concentration tested
same,rank order of nephrotoxicity by EC50 in the in vitro HK-2 assay,HK-2 cells,least nephrotoxic aminoglycoside tested
same,rank order of relative in vivo nephrotoxicity,"[2]; rat, in vivo","followed by amikacin, neomycin, and gentamicin"
"O=C(O)c1cccc(O)c1O [DHB, 2,3-dihydroxybenzoate]",toxicity of oral doses for one year,[5],no toxicity was observed
same,H2O2 induced membrane peroxidation,erythrocytes,inhibits H2O2 induced membrane peroxidation in erythrocytes
same,elevations in BUN and serum creatinine after gentamicin,"[6]; rat, gentamicin treatment for eight days","reduced elevations in blood, urea, nitrogen (BUN) and serum creatinine"
same,protection from gentamicin nephrotoxicity,[6]; rats,only partial protection from gentamicin nephrotoxicity
same,solubility in aqueous solution,[7],poor solubility in aqueous solution
same,shifts in auditory thresholds,[8],significantly lower shifts in auditory thresholds
